Source: patent US12357652B2, “Formulations of phosphoramidate derivatives of nucleoside drugs” (priority 2015, dated 2025)

What was measured:
[1] = cited from earlier work
[2] = Solubility of NUC-7738 in a range of solvents; assay type: physicochemical
[3] = NUC-7738 concentrate mixed with Tween 80 and added to saline, checked by eye for precipitation; assay and purity after 48 h; assay type: physicochemical
Description: 50 µL of a 100 mg/mL concentrate of NUC-7738 (mixture of diastereoisomers) in a range of solvents (DMA, DMSO, NMP, ethanol, benzyl alcohol) was mixed with 50 µL of Tween® 80 and added to 1.150 mL saline and the resultant solutions were checked by eye for precipitation of NUC-7738. Similarly a 50 µL concentrate of NUC-7738 (mixture of diastereoisomers) in Tween® 80 was mixed with 50 µL water for injection and then added to 1.150 mL saline.
(§1) Even a solubiliser is not effective, in the absence of a polar aprotic solvent, at retaining NUC-7738 in solution in aqueous conditions. The solutions prepared above were assayed for NUC-7738 content and purity on being formed and also after 48 h. […] In a further experiment, the […] concentration of NUC-7738 in solvents that could be diluted with saline without precipitation was determined. Solutions of NUC-7738 (mixture of diastereoisomers) at various concentrations in NMP, DMSO and DMA were prepared and 100 µL of the solutions were added to 2.40 mL saline.

[4] = NUC-7738 solutions in NMP, DMSO, DMA diluted with saline, observed for precipitation; assay type: physicochemical
Description: as §1

[5] = solutions of Table 8, after 48 h versus on being formed

C[C@H](NP(=O)(OC[C@H]1O[C@@H](n2ccc(N)nc2=O)C(F)(F)[C@@H]1O)Oc1ccccc1)C(=O)OCc1ccccc1 (stereo partly drawn) [NUC-1031, 2′-deoxy-2′,2′-difluoro-D-cytidine-5′-O-[phenyl (benzoxy-L-alaninyl)] phosphate]
Stability (to precipitation and to degradation) ([1]; S-isomer alone or mixture of R and S epimers at 4, 8 and 10 mg/mL, 48 hours after dilution in 0.45% and 0.9% saline, pH 4.5, 6.0 and 7.0, not stirred): stable
Osmolarity ([1]; all of the NUC-1031 solutions): acceptable for peripheral administration

C[C@H](NP(=O)(OC[C@@H]1C[C@@H](O)[C@H](n2cnc3c(N)ncnc32)O1)Oc1ccccc1)C(=O)OCc1ccccc1 (stereo partly drawn) [NUC-7738, 3′-deoxyadenosine-5′-O-[phenyl(benzyloxy-L-alaninyl)] phosphate]
Solubility ([2]; 5% Tween in water): <11.8 mg/mL
Solubility ([2]; DMA): >667 mg/mL
Solubility ([2]; DMSO): >667 mg/mL
Solubility ([2]; Ethanol): >667 mg/mL
Solubility ([2]; Heptane): <12 mg/mL
Solubility ([2]; NMP): >667 mg/mL
Solubility ([2]; Propylene Glycol): >667 mg/mL
Solubility ([2]; isopropylacetate): <9 mg/mL
Solubility ([2]; tbutylmethylether): <11 mg/mL
Appearance ([3]; 100 mg/mL concentrate in BnOH 50 + TW80 50 + Saline 1150): White precipitate, milky solution
Appearance ([3]; 100 mg/mL concentrate in DMA 50 + TW80 50 + Saline 1150): Clear and limpid solution
Appearance ([3]; 100 mg/mL concentrate in DMSO 50 + TW80 50 + Saline 1150): Clear and limpid solution
Appearance ([3]; 100 mg/mL concentrate in EtOH 50 + TW80 50 + Saline 1150): White precipitate, milky solution
Appearance ([3]; 100 mg/mL concentrate in NMP 50 + TW80 50 + Saline 1150): Clear and limpid solution
Appearance ([3]; concentrate in TW80 50 + WFI 50 + Saline 1150): White precipitate, milky solution
Assay content [3, 5]: substantially unchanged
Purity [3, 5]: substantially unchanged
Appearance ([4]; DMA 25 mg/ml concentrate 100 + Saline 2400): White insoluble precipitate from the first drop
Appearance ([4]; DMSO 25 mg/ml concentrate 100 + Saline 2400): White precipitate after addition of 100 μL
Appearance ([4]; DMSO 50 mg/ml concentrate 100 + Saline 2400): White insoluble precipitate from the first drop
Appearance ([4]; DMSO 100 mg/ml concentrate 100 + Saline 2400): White insoluble precipitate from the first drop
Appearance ([4]; NMP 25 mg/ml concentrate 100 + Saline 2400): Clear and limpid solution
Appearance ([4]; NMP 50 mg/ml concentrate 100 + Saline 2400): White insoluble precipitate from the first drop
Appearance ([4]; NMP 100 mg/ml concentrate 100 + Saline 2400): White insoluble precipitate from the first drop
